System: 5xFAD mice
Experiment: Fluoro-Jade staining of brain sections of 5xFAD mice treated with Nec-1S in vivo
Parameters: species or system mouse
Details: 8-month-old 5xFAD mice; 10 mg/kg i.p. once, then 0.5 mg/ml in drinking water for 21 days; vs vehicle
Procedure: Specifically, mice receive a single intraperitoneal injection of 10 mg/kg Nec1s after which they were given Nec1S in their drinking water at a concentration of 0.5 mg/ml for 21 days.
Immunohistochemistry: Coronal sections from hippocampus and temporal gyms of control (CTL) and Alzheimer's disease (AD) cases were pre-mounted on coated slides and washed in TBS. After blocking in TBSB (TBS, 2% BSA, and 0.1% Triton X), tissue was incubated overnight at 4° C. with the following primary antibodies: RIPK1 (1:200, BD Transduction Laboratories, catalog number 610459), MLKL (1:200, Novus Biologicals, catalog number NBP1-56729), RIPK3 (1:200, RD Systems catalog number MAB7604), pMLKL Ser358/Thr357 (1:200, Abcam, catalog number ab187091), pMLKL (1:200, SAB Signalway Antibody, catalog number 12837), NeuN (1:200, Cell Signaling, catalog number 024307P), Ibal (1:200, Wako, catalog number 09-19741), GFAP (1:200, Cell Signaling, catalog number 3670S), Caspase 3 (1:200, Millipore, catalog number AB3623), phospho-tau pSer202/Thr205 (ATB, 1:200, Thermo Fisher Scientific, catalog number MN1020), and pan-Cadherin (1:200, Abcam, catalog number ab6528 and ab6529). CP13 was a kind gift from Dr. Peter Davies. […]

## CN1C(=O)NC(Cc2c[nH]c3c(Cl)cccc23)C1=O (stereo not shown) [Nec1S, 5-((7-chloro-1 H-indol-3-yl)methyl)-3-methylimidazolidine-2,4-dione]
  Fluoro-Jade-positive neurons: fewer Fluoro-Jade-positive neurons compared to vehicle-treated 5xFAD mice

— patent publication US20180094248A1, “Necroptosis Signaling as a Therapeutic Target for Alzheimer's Disease” (Arizona Board of Regents on behalf of Arizona State …, priority 2016, published 2018)
